According to US20140315972A1, “RS)-2-(2-oxo-4-phenylpyrrolidin-1-yl)acetamide compound having modulatory activity with a commensurate effect, pharmaceutical substance (variants) and its application, composition (variants) thereof” (priority 2011, published 2014):
Like-named read-outs stand apart in the source and are kept apart here.

Tests used:
[1] = Acute toxicity, single intraperitoneal injection in male mice; assay type: in vivo; details: male, white outbred, mouse, in vivo, ip, male mice 18-24 g; single i.p.
Procedure: (§1) Tables 2, 2.1 and 2.2 present the results of acute toxicity studies of the Compounds with active substance content in at least white outbred male mice (body weight 18-24 g) and white outbred rats 30-35 days of age, of both sexes with a single dose. Calculation of toxic doses was made using the Wilcoxon and Litchfield method. Observations were made over 24 hours and 14 days after a single dose.
(§2) LD50 in rat pups after intragastric administration was not found. Intragastric administration to rat pups of doses of more than 1000 mg/kg is technically impossible due to the small volume of the stomach (Table 2.2).

rabbits = assay: Transcallosal stimulation induced potential (TSIP); assay type: in vivo; details: for effect on TSIP components (in words): 25-300 mg/kg
mice [2] = assay: Acute toxicity, single intraperitoneal injection in male mice; assay type: in vivo; details: male mice 18-24 g; single i.p.
Procedure: as §1, §2

rats = assay: Acute toxicity, single intragastric administration in immature rats; assay type: in vivo; details: single intragastric 800 mg/kg
Procedure: as §1, §2

mice [3] = assay: Cross maze exploratory behavior, HEF and LEF mice; assay type: in vivo; details: i.p. once a day 5 days, Compounds 1 and 4 100 mg/kg, Piracetam 200 mg/kg
mice [4] = details: mice; product of SU No 797219; cited from earlier work
[5] = Piracetam 300-500, Pyritinol 50-150, Phenotropil 25-300 mg/kg

Structure (SMILES): NC(=O)CN1CC(c2ccccc2)CC1=O (racemic) [Compound 2, (RS)-2-(2-oxo-4-phenylpyrrolidin-1-yl)acetamide]
- LD50 at 14 days [1]: 1000 mg/kg
- effect on TSIP components (in words) (rabbits): less pronounced than that of Compounds 1 and 3
- TSIP P1 + N1 amplitude (rabbits; [5]): ± (biphasic effect, less than 50% but not less than 20%)
- TSIP component N1 amplitude (rabbits; [5]): ± (biphasic effect, less than 50% but not less than 20%)
- TSIP component P1 amplitude (rabbits; [5]): ± (biphasic effect, less than 50% but not less than 20%)
- TSIP component P2 amplitude (rabbits; [5]): ± (biphasic effect, less than 50% but not less than 20%)

Structure (SMILES): NC(=O)CN1CC(c2ccccc2)CC1=O (racemic) [Compound 3, (RS)-2-(2-oxo-4-phenylpyrrolidin-1-yl)acetamide]
- LD50 (mice [2]): 1050 (984.6-1115.3) mg/kg
- Dead/total number (rats; rats 30-35 days): 0/10
- % of dead rat pups (rats): 0%

Structure (SMILES): NC(=O)CN1CC(c2ccccc2)CC1=O (racemic) [Compound 4, (RS)-2-(2-oxo-4-phenylpyrrolidin-1-yl)acetamide]
- LD50 (mice [2]): 904 mg/kg
- Kt (trigger transmission coefficient) (mice [3]; HEF mice): 3.9 ± 0.45
- Number of compartment explorations (mice [3]; HEF mice): 6.5 ± 0.7 //
- Number of surveillances (mice [3]; HEF mice): 1.6 ± 0.2
- Kt (trigger transmission coefficient) (mice [3]; LEF mice): 3.9 ± 0.4
- Number of compartment explorations (mice [3]; LEF mice): 7.0 ± 0.6 //
- Number of surveillances (mice [3]; LEF mice): 1.8 ± 0.2
- Kt (trigger transmission coefficient) (mice [3]; population as a whole): 3.9 ± 0.45
- Number of compartment explorations (mice [3]; population as a whole): 6.7 ± 0.7 //
- Number of surveillances (mice [3]; population as a whole): 1.7 ± 0.2
- effect on TSIP components (in words) (rabbits): no significant difference from the saline treated control

Structure (SMILES): NC(=O)CN1CC(c2ccccc2)CC1=O (stereo not drawn) [N-carbamoylmethyl-4-phenyl-2-pyrrolidone, reference compound]
- LD50 (mice [4]): 831 mg/kg
